Measurements published in ChEMBL document CHEMBL5104163, “Modulation of key antioxidant enzymes and cell cycle arrest as a possible antifungal mode of action of cinnamaldehyde based azole derivative” (2022).
In brackets after ≈: the same amount, converted by molar mass. Activity calls are given as the source filed them. The calls are words filed in the database; no cut-off is given here.

Columns and labels:
[1] = tested on: [Candida] auris; assay: Antifungal activity against Candida auris MRL6057; assay type: functional; conditions: Candidozyma auris
[2] = tested on: [Candida] auris; assay: Antifungal activity against clinical strain Candida auris; assay type: functional; conditions: Candidozyma auris
[3] = tested on: [Candida] auris; assay: Antifungal activity against Candida auris MRL6057 assessed as dead cells at 0.49 ug/ml; assay type: functional, Candidozyma auris; conditions: dose 0.49 µg/ml
[4] = tested on: [Candida] auris; assay: Antifungal activity against Candida auris MRL6057 assessed as dead cells at 0.98 ug/ml; assay type: functional, Candidozyma auris; conditions: dose 0.98 µg/ml
[5] = tested on: [Candida] auris; assay: Antifungal activity against Candida auris MRL6057 assessed as dead cells at 1.96 ug/ml; assay type: functional, Candidozyma auris; conditions: dose 1.96 µg/ml
[6] = tested on: Candida albicans; assay: Antifungal activity against Candida albicans assessed as dead cells; assay type: functional
[7] = tested on: [Candida] auris; assay: Induction of cell cycle arrest in Candida auris MRL6057 cells assessed as cell population at G0/G1 phase at 0.5xMIC measured by Muse cell analyzer; assay type: functional, Candidozyma auris
[8] = tested on: [Candida] auris; assay: Induction of cell cycle arrest in Candida auris MRL6057 cells assessed as cell population at S phase at 0.5xMIC measured by Muse cell analyzer; assay type: functional, Candidozyma auris
[9] = tested on: [Candida] auris; assay: Induction of cell cycle arrest in Candida auris MRL6057 cells assessed as cell population at G2/M phase at 0.5xMIC measured by Muse cell analyzer; assay type: functional, Candidozyma auris
[10] = tested on: [Candida] auris; assay: Induction of cell cycle arrest in Candida auris MRL6057 cells assessed as cell population at G0/G1 phase at MIC measured by Muse cell analyzer; assay type: functional, Candidozyma auris
[11] = tested on: [Candida] auris; assay: Induction of cell cycle arrest in Candida auris MRL6057 cells assessed as cell population at S phase at MIC measured by Muse cell analyzer; assay type: functional, Candidozyma auris
[12] = tested on: [Candida] auris; assay: Induction of cell cycle arrest in Candida auris MRL6057 cells assessed as cell population at G2/M phase at MIC measured by Muse cell analyzer; assay type: functional, Candidozyma auris
[13] = tested on: [Candida] auris; assay: Induction of oxidative stress in Candida auris MRL6057 incubated for 2 hrs and assessed as increase in LPO activity; assay type: functional, organism-based; conditions: Candidozyma auris
[14] = tested on: [Candida] auris; assay: Induction of oxidative stress in Candida auris MRL6057 incubated for 2 hrs assessed as increase in CAT activity; assay type: functional, organism-based; conditions: Candidozyma auris
[15] = tested on: [Candida] auris; assay: Induction of oxidative stress in Candida auris MRL6057 incubated for 2 hrs assessed as increase in SOD activity; assay type: functional, organism-based; conditions: Candidozyma auris
[16] = tested on: [Candida] auris; assay: Induction of oxidative stress in Candida auris MRL6057 incubated for 2 hrs assessed as increase in GPx activity; assay type: functional, organism-based; conditions: Candidozyma auris
[17] = tested on: [Candida] auris; assay: Induction of oxidative stress in Candida auris MRL6057 incubated for 2 hrs assessed as decrease in GLR activity; assay type: functional, organism-based; conditions: Candidozyma auris
[18] = tested on: [Candida] auris; assay: Induction of oxidative stress in Candida auris MRL6057 incubated for 2 hrs assessed as decrease in GST activity; assay type: functional, organism-based; conditions: Candidozyma auris
[19] = tested on: [Candida] auris; assay: Induction of oxidative stress in Candida auris MRL6057 incubated for 2 hrs and assessed as upregulation of CATA mRNA expression measured by RT-qPCR analysis; assay type: functional, organism-based; conditions: Candidozyma auris
[20] = tested on: [Candida] auris; assay: Induction of oxidative stress in Candida auris MRL6057 incubated for 2 hrs and assessed as upregulation of SOD4 mRNA expression measured by RT-qPCR analysis; assay type: functional, organism-based; conditions: Candidozyma auris
[21] = tested on: [Candida] auris; assay: Induction of oxidative stress in Candida auris MRL6057 incubated for 2 hrs and assessed as upregulation of GPx3 mRNA expression measured by RT-qPCR analysis; assay type: functional, organism-based; conditions: Candidozyma auris
[22] = tested on: [Candida] auris; assay: Induction of oxidative stress in Candida auris MRL6057 incubated for 2 hrs and assessed as downregulation of GST1 mRNA expression measured by RT-qPCR analysis; assay type: functional, organism-based; conditions: Candidozyma auris
[23] = tested on: [Candida] auris; assay: Induction of oxidative stress in Candida auris MRL6057 incubated for 2 hrs and assessed as downregulation of GSHR mRNA expression measured by RT-qPCR analysis; assay type: functional, organism-based; conditions: Candidozyma auris

SMILES: C[C@@H]1[C@H](O)[C@@H](C)/C=C/C=C/C=C/C=C/C=C/C=C/C=C/[C@H](O[C@@H]2O[C@H](C)[C@@H](O)[C@H](N)[C@@H]2O)C[C@@H]2O[C@](O)(C[C@@H](O)C[C@@H](O)[C@H](O)CC[C@@H](O)C[C@@H](O)CC(=O)O[C@H]1C)C[C@H](O)[C@H]2C(=O)O [AMPHOTERICIN B]
- MFC [1]: 8 µg/mL (≈ 8.66 µM)
- MIC [1]: 4 µg/mL (≈ 4.33 µM)
- MIC [2]: ≥ 2 µg/mL

SMILES: O=C(Cn1nnc(/C=C/c2ccccc2)n1)N/N=C/c1ccc([N+](=O)[O-])cc1
- MFC [1]: 1.96 µg/mL (≈ 5.19 µM)
- MIC [1]: 0.98 µg/mL (≈ 2.6 µM)
- Activity [3]: 69.2%
- Activity [4]: 83.1%
- Activity [5]: 99.9%
- Activity [6]: 75%
- Activity [7]: 48.2%
- Activity [8]: 44.5%
- Activity [9]: 7.2%
- Activity [10]: 2.3%
- Activity [11]: 49.3%
- Activity [12]: 48.3%
- Activity [13]: Active
- Activity [14]: Active
- Activity [15]: Active
- Activity [16]: Active
- Activity [17]: Active
- Activity [18]: Active
- Activity [19]: Active
- Activity [20]: Active
- Activity [21]: Active
- Activity [22]: Active
- Activity [23]: Active
